Assay results taken from ChEMBL document CHEMBL1926682, “Triterpene galactosides of the pouoside class and corresponding aglycones from the sponge Lipastrotethya sp” (J Nat Prod, 2011).
Converted amounts (≈) assume the structure as drawn.

Experiments:
K562 = test: Cytotoxicity against human K562 cells by spectrophotometric analysis; type: functional, cell-based
P388 = test: Cytotoxicity against mouse P388 cells; type: functional; conditions: read-out: ED50 (the source's name)

SMILES | IC50 (K562) [µM] | EC50 (P388) [µg/mL]
CC(=O)O[C@@H](C[C@@H]1C(C)=CCC(=O)C1(C)C)/C(C)=C/[C@H](O)C/C=C(\C)CC[C@H]1C(C)(C)[C@@H](O)CC[C@]1(C)OC(C)=O [POUOGENIN C] | 14.6 | 
CC(=O)O[C@@]1(C)CC[C@H](O[C@@H]2O[C@H](CO)[C@H](O)[C@H](O)[C@H]2O)C(C)(C)[C@@H]1CC/C(C)=C/C[C@@H](O)/C=C(\C)C(=O)C[C@H]1C(C)(C)C(=O)C=C[C@]1(C)O [POUOSIDE H] | > 100 | 
COc1cccc2c1C(=O)c1c(O)c3c(c(O)c1C2=O)C[C@@](O)(C(=O)CO)C[C@@H]3O[C@H]1C[C@H](N)[C@H](O)[C@H](C)O1 [DOXORUBICIN] | 13.6 | 
CC(=O)O[C@H]1[C@H](O[C@H]2CC[C@](C)(OC(C)=O)[C@@H](CC/C(C)=C/C[C@H](/C=C(\C)[C@H](C[C@@H]3C(C)=CCC(=O)C3(C)C)OC(C)=O)OC(C)=O)C2(C)C)O[C@H](CO)[C@H](O)[C@@H]1O [POUOSIDE D] | 12.5 | 
CC(=O)O[C@@]1(C)CC[C@H](O)C(C)(C)[C@@H]1CC/C(C)=C/C[C@@H](O)/C=C(\C)[C@@H](O)C[C@@H]1C(C)=CCC(=O)C1(C)C [POUOGENIN A] | 14.8 | 
CC(=O)O[C@@]1(C)CC[C@H](O)C(C)(C)[C@@H]1CC/C(C)=C/C[C@@H](O)/C=C(\C)C(=O)C[C@H]1C(C)(C)C(=O)C=C[C@]1(C)O [POUOGENIN E] | 18.9 | 
CC(=O)O[C@@H](C[C@H]1C(C)(C)C(=O)C=C[C@]1(C)O)/C(C)=C/[C@H](O)C/C=C(\C)CC[C@H]1C(C)(C)[C@@H](O[C@@H]2O[C@H](CO)[C@H](O)[C@H](O)[C@H]2O)CC[C@]1(C)OC(C)=O [POUOSIDE G] | > 100 | 
CC(=O)O[C@@H](C[C@@H]1C(C)=CCC(=O)C1(C)C)/C(C)=C/[C@H](O)C/C=C(\C)CC[C@H]1C(C)(C)[C@@H](O[C@@H]2O[C@H](CO)[C@H](O)[C@H](O)[C@H]2O)CC[C@]1(C)OC(C)=O [POUOSIDE B] | > 100 | 
C=C1CC[C@H](O[C@@H]2O[C@H](CO)[C@H](O)[C@H](O)[C@H]2O)C(C)(C)[C@@H]1CC/C(C)=C/C[C@H](/C=C(\C)[C@H](C[C@@H]1C(C)=CCC(=O)C1(C)C)OC(C)=O)OC(C)=O [POUOSIDE I] | > 100 | 
CC(=O)O[C@@H](C[C@H]1C(C)(C)C(=O)C=C[C@]1(C)O)/C(C)=C/[C@H](O)C/C=C(\C)CC[C@H]1C(C)(C)[C@@H](O)CC[C@]1(C)OC(C)=O [POUOGENIN D] | 27.5 | 
CC(=O)O[C@@H](C[C@@H]1C(C)=CCC(=O)C1(C)C)/C(C)=C/[C@@H](C/C=C(\C)CC[C@H]1C(C)(C)[C@@H](O[C@@H]2O[C@H](CO)[C@H](O)[C@H](O)[C@H]2O)CC[C@]1(C)OC(C)=O)OC(C)=O [POUOSIDE A] | 17 | 1.5 (≈ 1.93 µM)
CC(=O)O[C@@H](C[C@@H]1C(C)=CCC(=O)C1(C)C)/C(C)=C/[C@@H](C/C=C(\C)CC[C@H]1C(C)(C)[C@@H](O)CC[C@]1(C)OC(C)=O)OC(C)=O [POUOGENIN B] | 38.9 | 
CC(=O)O[C@@]1(C)CC[C@H](O[C@@H]2O[C@H](CO)[C@H](O)[C@H](O)[C@H]2O)C(C)(C)[C@@H]1CC/C(C)=C/C[C@@H](O)/C=C(\C)[C@@H](O)C[C@@H]1C(C)=CCC(=O)C1(C)C [POUOSIDE F] | > 100 | 
